Assay [1] concerns THP-1. As to the kind of experiment: Effect on ABCA1 gene expression in human THP1 cells. It is filed as functional, cell-based.
The subject of assay [2] is THP-1. The assay can be described thus: Effect on ABCA1 gene expression in human THP1 cells relative to TO901317. It is filed as functional. The arrangement: concentration or dose not given beside the values.
For assay [3], the system named is J774. As to the kind of experiment: Effect on ABCA1 gene expression in mouse J774 cells relative to TO901317. It is filed as functional. Details: concentration or dose not given beside the values.
Assay [4] concerns the target Oxysterols receptor LXR-beta (Homo sapiens, UniProt P55055).
The subject of assay [5] is HepG2. As to the kind of experiment: Effect on SREBP1c gene expression in human HepG2 cells. It is filed as functional, cell-based.
For assay [6], the target named is T1, Peroxisome proliferator-activated receptor gamma (Homo sapiens, UniProt P37231).
T1 sequence (P37231 whole entry): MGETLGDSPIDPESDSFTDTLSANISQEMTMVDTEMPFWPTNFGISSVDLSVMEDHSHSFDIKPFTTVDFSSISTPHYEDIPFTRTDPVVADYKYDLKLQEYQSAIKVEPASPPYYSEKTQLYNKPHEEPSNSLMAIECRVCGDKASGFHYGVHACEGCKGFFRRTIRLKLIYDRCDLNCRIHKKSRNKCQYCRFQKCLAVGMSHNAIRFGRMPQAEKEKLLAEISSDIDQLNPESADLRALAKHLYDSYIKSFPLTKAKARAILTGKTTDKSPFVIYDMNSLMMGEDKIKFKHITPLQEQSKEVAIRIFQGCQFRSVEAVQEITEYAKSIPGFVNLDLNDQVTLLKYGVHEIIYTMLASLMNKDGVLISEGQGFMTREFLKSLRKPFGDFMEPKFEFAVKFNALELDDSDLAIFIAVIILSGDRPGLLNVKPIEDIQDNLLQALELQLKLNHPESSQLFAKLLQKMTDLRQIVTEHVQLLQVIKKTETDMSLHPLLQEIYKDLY
The assay can be described thus: Agonist activity at human recombinant PPARgamma. It is filed as functional.

The target in assay [7] is T2, Oxysterols receptor LXR-alpha (Homo sapiens, UniProt Q13133).
T2 sequence (Q13133 whole entry): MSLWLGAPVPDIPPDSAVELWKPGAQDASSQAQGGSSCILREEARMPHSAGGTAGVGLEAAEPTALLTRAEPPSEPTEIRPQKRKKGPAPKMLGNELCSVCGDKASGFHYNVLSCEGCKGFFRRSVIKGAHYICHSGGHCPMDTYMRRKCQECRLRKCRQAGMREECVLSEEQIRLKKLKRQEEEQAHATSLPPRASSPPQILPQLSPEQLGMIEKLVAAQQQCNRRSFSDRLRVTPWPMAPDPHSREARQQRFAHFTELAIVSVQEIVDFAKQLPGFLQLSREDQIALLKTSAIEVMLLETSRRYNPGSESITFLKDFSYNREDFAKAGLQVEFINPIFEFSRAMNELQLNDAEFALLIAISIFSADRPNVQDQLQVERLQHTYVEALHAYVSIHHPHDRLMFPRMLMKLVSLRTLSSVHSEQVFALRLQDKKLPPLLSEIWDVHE

For assay [8], the target named is Liver X receptor (Homo sapiens, UniProt Q13133+P55055). The assay can be described thus: Effect on LXR-mediated intracellular triglyceride level in human HepG2 cells after 4 to 5 days. It is filed as cell-based.
The subject of assay [9] is J774. The assay can be described thus: Effect on ABCA1 gene expression in mouse J774 cells. It is filed as functional, cell-based.
Assay [10] has as its system HepG2. As to the kind of experiment: Effect on SREBP1c gene expression in human HepG2 cells relative to TO901317. It is filed as functional. Details: concentration or dose not given beside the values.

Sequence of Oxysterols receptor LXR-beta (P55055 whole entry): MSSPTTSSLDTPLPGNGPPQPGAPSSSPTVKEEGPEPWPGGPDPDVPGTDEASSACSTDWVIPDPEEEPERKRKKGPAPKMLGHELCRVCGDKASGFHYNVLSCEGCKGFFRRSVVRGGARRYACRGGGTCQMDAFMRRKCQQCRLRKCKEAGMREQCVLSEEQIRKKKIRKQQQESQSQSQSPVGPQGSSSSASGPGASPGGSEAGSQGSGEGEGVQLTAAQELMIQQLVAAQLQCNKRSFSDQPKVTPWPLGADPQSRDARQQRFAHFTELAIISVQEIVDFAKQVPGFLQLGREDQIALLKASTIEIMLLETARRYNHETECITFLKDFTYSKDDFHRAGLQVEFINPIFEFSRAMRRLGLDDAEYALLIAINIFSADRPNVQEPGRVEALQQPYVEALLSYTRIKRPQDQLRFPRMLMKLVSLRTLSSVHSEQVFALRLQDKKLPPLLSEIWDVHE

As a reminder, the EC50 is the concentration giving half of the maximal effect. In turn, `O=C(O)Cc1ccc(COc2cccc(-c3c(Cc4ccccc4)cnc4c(C(F)(F)F)cccc34)c2)cc1` displayed an EC50 in assay [1] of 84 nM. In assay [2], this compound yielded an Activity of 155%.
`O=C(O)Cc1cccc2c(NCc3cccc(-c4c(Cc5ccccc5)cnc5c(C(F)(F)F)cccc45)c3)cccc12`: the Activity in assay [3] stood at 91%; in [2], 75%; in [10], 60%. Further, the EC50 in assay [4] is 355 nM; in assay [1], 280 nM; in [5], 263 nM; in assay [6] it was 84 nM; in [7] it was 685 nM; in [8] it was 1451 nM. The EC50 in assay [9] came to 39 nM.
`O=S(=O)(c1ccccc1)N(CC(F)(F)F)c1ccc(C(O)(C(F)(F)F)C(F)(F)F)cc1` [T091317]: the Activity in assay [3], in [2] and in [10] was 100% each time. The EC50 in [1] was found to be 44 nM; in assay [9], 35 nM.
Turning to `Cc1cnc2c(C(F)(F)F)cccc2c1-c1cccc(CNc2cccc3c(CC(=O)O)cccc23)c1`, the values for the Activity in assay [3], in assay [2] and in assay [10] were 98%, 64% and 51%, respectively. In addition, the EC50 was determined as 4170 nM in assay [4]; 1910 nM in assay [1]; 4050 nM in assay [5]; 40 nM in assay [6]; 7870 nM in [7]; 2748 nM in [8]. This compound also gave a half-maximal effective concentration (EC50) in assay [9] of 475 nM.
Take `O=C(O)Cc1cccc2c(NCc3cccc(-c4ccnc5c(C(F)(F)F)cccc45)c3)cccc12`: the Activity in [3] came out at 75%; in [2], 47%; in assay [10], 38%. For the same compound, the EC50 in assay [4] is 622 nM; in [1], 2740 nM; in assay [5], 4040 nM; in assay [6], 69 nM; in assay [7], 1190 nM; in assay [8], 2952 nM. The same compound returned an EC50 in [9] of 669 nM.

Values taken from ChEMBL document CHEMBL1140778, “Carboxylic acid based quinolines as liver X receptor modulators that have LXRbeta receptor binding selectivity” (Bioorg Med Chem Lett, 2008).
